Source: patent US20080194524A1, “Compounds For the Inhibition of Undesired Cell Proliferation and Use Thereof” (JERINI AG, priority 2003, published 2008)
Like-named read-outs stand apart in the source and are kept apart here. Where a SMILES comes first, the peptide text is derived from it. [ ]: non-standard residue; d: D form. The star is where a group is joined. X1 = O=C(O)c1cc(NC(=S)*)ccc1-c1c2ccc(=O)cc-2oc2cc(O)ccc12; 2Nal = N[C@@H](Cc1ccc2ccccc2c1)C(=O)O; Bta = N[C@@H](Cc1csc2ccccc12)C(=O)O; pGlu = O=C1CC[C@@H](C(=O)O)N1; Pip = O=C(O)[C@@H]1CCCCN1; CH2PO3H2 = O=P(O)(O)C*; Ahx = NCCCCCC(=O)O

Biological target: hPin1 (Protein interacting with NIMA (-kinase)) (Homo sapiens, UniProt Q13526)
Sequence (Q13526 whole entry): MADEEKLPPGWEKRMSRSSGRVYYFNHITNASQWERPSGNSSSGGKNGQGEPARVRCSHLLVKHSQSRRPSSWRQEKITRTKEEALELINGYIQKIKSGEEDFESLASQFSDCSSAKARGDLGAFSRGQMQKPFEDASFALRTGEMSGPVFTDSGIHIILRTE
Assay: protease-coupled PPIase assay, hPin1
Format: biochemical
[1] = hPin1 6 nM, substrate Ac-Ala-Ala-Ser(PO3H2)-Pro-Arg-pNA, trypsin, 35 mM HEPES pH 7.8, 6° C., read-out: Specificity of the inhibition with rotamases, Target T-1 (IC50 class)

SMILES | IC50 [1] | IC50
NC(=O)[C@H](Cc1ccc2ccccc2c1)NC(=O)[C@@H]1CCCCN1C(=O)[C@H](CSCP(=O)(O)O)NC(=O)Cc1ccc2c(c1)OCO2 [Compound 56, {2-(2-Benzo[1.3]dioxol-5-yl-acetylamino)-3-[2-(1-carbamoyl-2-naphthalen-2-yl-ethylcarbamoyl)-piperidin-1-yl]-3-oxo-propylsulfanylmethyl}-phosphonic acid] | < 1000 nM | –
NC(=O)[C@H](Cc1ccc2ccccc2c1)NC(=O)[C@@H]1CCCCN1C(=O)[C@H](CSCP(=O)(O)O)NC(=O)C1CSC(=O)N1C(=O)C1CSC(=O)N1 (some centres unmarked) [Compound 13, (3-[2-(1-Carbamoyl-2-naphthalen-2-yl-ethylcarbamoyl)-piperidin-1-yl]-3-oxo-2-{[2-oxo-3-(2-oxo-thiazolidine-4-carbonyl)-thiazolidine-4-carbonyl]-amino}-propylsulfanylmethyl)-phosphonicacid] | – | < 1000 nM
CC(=O)N1C(=O)SCC1C(=O)N[C@@H](CSCP(=O)(O)O)C(=O)N1CCCC[C@H]1C(=O)N[C@@H](Cc1ccc2ccccc2c1)C(N)=O (stereo in doubt) [Compound 42, {2-[(3-Acetyl-2-oxo-thiazolidine-4-carbonyl)-amino]-3-[2-(1-carbamoyl-2-naphthalen-2-yl-ethylcarbamoyl)-piperidin-1-yl]-3-oxo-propylsulfanylmethyl}-phosphonic acid] | – | < 1000 nM
COc1ccc(NC(=O)CC(SCP(=O)(O)O)C(=O)N2CCCC[C@H]2C(=O)N[C@@H](Cc2ccc3ccccc3c2)C(N)=O)cc1 (mixture of isomers) [Compound 70, {2-[2-(1-Carbamoyl-2-naphthalen-2-yl-ethylcarbamoyl)-piperidin-1-yl]-1-[(4-methoxy-phenyl-carbamoyl)-methyl]-2-oxo-ethylsulfanylmethyl}-phosphonicacid] | < 1000 nM | –
COc1ccc(CC(=O)N[C@@H](CSCP(=O)(O)O)C(=O)N2CCCC[C@H]2C(=O)N[C@@H](Cc2ccc3ccccc3c2)C(N)=O)cc1 [Compound 36, {3-[2-(1-Carbamoyl-2-naphthalen-2-yl-ethylcarbamoyl)-piperidin-1-yl]-2-[2-(4-methoxy-phenyl)-acetylamino]-3-oxo-propylsulfanylmethyl}-phosphonicacid] | < 1000 nM | –
COc1cc(CC(=O)N[C@@H](CSCP(=O)(O)O)C(=O)N2CCCC[C@H]2C(=O)N[C@@H](Cc2ccc3ccccc3c2)C(N)=O)cc(OC)c1 [Compound 57, {3-[2-(1-Carbamoyl-2-naphthalen-2-yl-ethylcarbamoyl)-piperidin-1-yl]-2-[2-(3.5-dimethoxy-phenyl)-acetylamino]-3-oxo-propylsulfanylmethyl}-phosphonicacid] | < 1000 nM | –
NC(=O)[C@H](Cc1ccc2ccccc2c1)NC(=O)[C@@H]1CCCCN1C(=O)[C@H](CSCP(=O)(O)O)NC(=O)CC1NC(=O)NC1=O (some centres unmarked) [Compound 10, {3-[2-(1-Carbamoyl-2-naphthalen-2-yl-ethylcarbamoyl)-piperidin-1-yl]-2-[2-(2.5-dioxo-imidazolidin-4-yl)-acetylamino]-3-oxo-propylsulfanylmethyl}-phosphonicacid] | – | < 1000 nM
NC(=O)[C@H](Cc1ccc2ccccc2c1)NC(=O)[C@@H]1CCCCN1C(=O)[C@H](CSCP(=O)(O)O)NC(=O)Cc1ccccc1Cl [Compound 34, {3-[2-(1-Carbamoyl-2-naphthalen-2-yl-ethylcarbamoyl)-piperidin-1-yl]-2-[2-(2-chloro-phenyl)-acetylamino]-3-oxo-propylsulfanylmethyl}-phosphonicacid] | < 1000 nM | –
NC(=O)[C@H](Cc1ccc2ccccc2c1)NC(=O)[C@@H]1CCCCN1C(=O)[C@H](CSCP(=O)(O)O)NC(=O)[C@H](Cc1csc2ccccc12)NC(=O)CCCCCNC(=S)Nc1ccc(-c2c3ccc(=O)cc-3oc3cc(O)ccc23)c(C(=O)O)c1 [Compound 9] ({X1-Ahx}-[Bta]C(CH2PO3H2)[Pip][2Nal]-NH2) | – | < 1000 nM
CC(=O)N[C@@H](Cc1csc2ccccc12)C(=O)N[C@@H](CSCP(=O)(O)O)C(=O)N(C)N(C)C(=O)N[C@@H](Cc1ccc2ccccc2c1)C(N)=O [Compound 26, Ac-Bta-Cys(CH2—P(O)(OH)2)-NMeazaAla-2Nal-NH2] | < 1000 nM | –
O=C(Nc1ccccc1)[C@@H]1CCCCN1C(=O)CSCP(=O)(O)O [Compound 60, [2-Oxo-2-(2-phenylcarbamoyl-piperidin-1-yl)-ethylsulfanylmethyl]-phosphonicacid] | 1000 to 10000 nM | –
NC(=O)[C@H](Cc1ccc2ccccc2c1)NC(=O)[C@@H]1CCCCN1C(=O)[C@H](CSCP(=O)(O)O)NC(=O)Cc1ccc(-c2ccccc2)cc1 [Compound 24, {2-(2-Biphenyl-4-yl-acetylamino)-3-[2-(1-carbamoyl-2-naphthalen-2-yl-ethylcarbamoyl)-piperidin-1-yl]-3-oxo-propylsulfanylmethyl}-phosphonic acid] | < 1000 nM | –
NC(=O)[C@H](Cc1ccc2ccccc2c1)NC(=O)[C@@H]1CCCCN1C(=O)[C@H](CSCP(=O)(O)O)NC(=O)Cc1ccc(Cl)cc1 [Compound 35, {3-[2-(1-Carbamoyl-2-naphthalen-2-yl-ethylcarbamoyl)-piperidin-1-yl]-2-[2-(4-chloro-phenyl)-acetylamino]-3-oxo-propylsulfanylmethyl}-phosphonicacid] | < 1000 nM | –
NC(=O)[C@H](Cc1ccc2ccccc2c1)NC(=O)[C@@H]1CCCCN1C(=O)[C@H](CSCP(=O)(O)O)NC(=O)[C@@H]1CCC(=O)N1 [Compound 39, {3-[2-(1-Carbamoyl-2-naphthalen-2-yl-ethylcarbamoyl)-piperidin-1-yl]-3-oxo-2-[(5-oxo-pyrrolidine-2-carbonyl)-amino]-propylsulfanyl-methyl}-phosphonic acid] ([pGlu]C(CH2PO3H2)[Pip][2Nal]-NH2) | – | < 1000 nM
NC(=O)[C@H](Cc1ccc2ccccc2c1)NC(=O)[C@@H]1CCCCN1C(=O)[C@H](CSCP(=O)(O)O)NC(=O)OCc1ccccc1 [Compound 31, {2-Benzyloxycarbonylamino-3-[2-(1-carbamoyl-2-naphthalen-2-yl-ethylcarbamoyl)-piperidin-1-yl]-3-oxo-propylsulfanylmethyl}-phosphonic acid] | < 1000 nM | –
CC(=O)N[C@@H](Cc1csc2ccccc12)C(=O)N[C@@H](CSCP(=O)(O)O)C(=O)N1CCCC[C@H]1C(=O)N[C@@H](Cc1ccc2ccccc2c1)C(N)=O [Compound 2, {2-(2-Acetylamino-3-benzo[b]thiophen-3-yl-propionylamino)-3-[2-(1-carbamoyl-2-naphthalen-2-yl-ethylcarbamoyl)-piperidin-1-yl]-3-oxo-propylsulfanylmethyl}-phosphonic acid] | – | < 1000 nM
NC(=O)[C@H](Cc1ccc2ccccc2c1)NC(=O)[C@@H]1CCCCN1C(=O)[C@H](CSCP(=O)(O)O)NC(=O)CC1CCCCC1 [Compound 11, [3-[2-(1-Carbamoyl-2-naphthalen-2-yl-ethylcarbamoyl)-piperidin-1-yl]-2-(2-cyclohexyl-acetylamino)-3-oxo-propylsulfanylmethyl]-phosphonic acid] | 1000 to 10000 nM | –
NC(=O)[C@H](Cc1ccc2ccccc2c1)NC(=O)[C@@H]1CCCCN1C(=O)[C@H](CSCP(=O)(O)O)NS(=O)(=O)CCCc1ccccc1 [Compound 50, [3-[2-(1-Carbamoyl-2-naphthalen-2-yl-ethylcarbamoyl)-piperidin-1-yl]-3-oxo-2-(3-phenyl-propane-1-sulfonylamino)-propylsulfanylmethyl]-phosphonicacid] | < 1000 nM | –
O=C(NC(Cc1ccc2ccccc2c1)c1ccccc1)[C@@H]1CCCCN1C(=O)CSCP(=O)(O)O (some centres unmarked) [Compound 73, {2-[2-(2-Naphthalen-2-yl-1-phenyl-ethylcarbamoyl)-piperidin-1-yl]-2-oxo-ethylsulfanylmethyl}-phosphonic acid] | < 1000 nM | –
O=C(NCCc1ccc2ccccc2c1)[C@@H]1CCCCN1C(=O)CSCP(=O)(O)O [Compound 59, {2-[2-(2-Naphthalen-2-yl-ethylcarbamoyl)-piperidin-1-yl]-2-oxo-ethylsulfanylmethyl}-phosphonic acid] | 1000 to 10000 nM | –
NC(=O)[C@H](Cc1ccc2ccccc2c1)NC(=O)[C@@H]1CCCCN1C(=O)[C@H](CSCP(=O)(O)O)NC(=O)CCc1cccs1 [Compound 16, [3-[2-(1-Carbamoyl-2-naphthalen-2-yl-ethylcarbamoyl)-piperidin-1-yl]-3-oxo-2-(3-thiophen-2-yl-propionylamino)-propylsulfanylmethyl]-phosphonicacid] | 1000 to 10000 nM | –
NC(=O)[C@H](Cc1ccc2ccccc2c1)NC(=O)[C@@H]1CCCCN1C(=O)[C@H](CSCP(=O)(O)O)NC(=O)c1ccccc1 [Compound 20, {2-Benzoylamino-3-[2-(1-carbamoyl-2-naphthalen-2-yl-ethylcarbamoyl)-piperidin-1-yl]-3-oxo-propylsulfanylmethyl}-phosphonic acid] | < 1000 nM | –
NC(=O)[C@H](Cc1ccc2ccccc2c1)NC(=O)[C@@H]1CCCCN1C(=O)[C@H](CSCP(=O)(O)O)NC(=O)Oc1ccccc1 [Compound 46, {3-[2-(1-Carbamoyl-2-naphthalen-2-yl-ethylcarbamoyl)-piperidin-1-yl]3-oxo-2-phenoxycarbonylamino-propylsulfanylmethyl}-phosphonicacid] | – | < 1000 nM
O=C(NCCCc1ccccc1)[C@@H]1CCCCN1C(=O)CSCP(=O)(O)O [Compound 68, {2-Oxo-2-[2-(3-phenyl-propylcarbamoyl)-piperidin-1-yl]-ethylsulfanylmethyl}-phosphonicacid] | 1000 to 10000 nM | –
COc1cccc(CC(=O)N[C@@H](CSCP(=O)(O)O)C(=O)N2CCCC[C@H]2C(=O)N[C@@H](Cc2ccc3ccccc3c2)C(N)=O)c1 [Compound 61, {3-[2-(1-Carbamoyl-2-naphthalen-2-yl-ethylcarbamoyl)-piperidin-1-yl]-2-[2-(3-methoxy-phenyl)-acetylamino]-3-oxo-propylsulfanylmethyl}-phosphonicacid] | < 1000 nM | –
CC(=O)N[C@@H](Cc1csc2ccccc12)C(=O)N[C@@H](CSCP(=O)(O)O)C(=O)N(C)NC(=O)N[C@@H](Cc1ccc2ccccc2c1)C(N)=O [Compound 27, Ac-Bta-Cys(CH2—P(O)(OH)2)-NMeazaGly-2Nal-NH2] | < 1000 nM | –
